Assay results from patent US20070073039A1, “Peptides that inhibit viral infections” (priority 2005, published 2007).

Tested on: HCV
Assay: HCV focus reduction assay
Assay type: cell-based, Hepatitis C virus (JFH-1)
Settings: for Fold Inhibition: inhibition of HCV infection; for Fold Inhibition / % of Mock: peptide approximately 20 μM, Huh-7.5.1 cells, 3 days; for % of Mock: number of HCV foci as % of mock (0.5% DMSO); for 1/3 diluted / 1/9 diluted / No dilution: HCV foci; for 1/3 diluted: 1/3 of final concentration (6 μM); for 1/9 diluted: 1/9 of final concentration (2 μM); for No dilution: final concentration 17-20 μM, MOCK 53 ± 4; for Fold inhibition of HCV infection: peptide library screen, approximately 20 μM
Method: To identify peptides that display antiviral activity against HCV infection, the peptide library was screened by an HCV focus reduction assay. The peptides were constituted in 100% DMSO at a final concentration 10 mg/mL, and stored in −20° C. The peptide stock solution was diluted 1:200 to a final concentration approximately 20 μM in complete DMEM growth medium containing 50 focus forming units (ffu) of HCV. The virus-peptide mixture was transferred to Huh-7.5.1 cells at a density of 8000 cells per well in a 96-well plate. After adsorption for 4 hours at 37° C., the inoculum was removed. The cells were washed 2 times, overlaid with 120 μL fresh growth medium and incubated at 37° C. After 3 days of culture, the cells were fixed with paraformaldehyde and immunostained with antibody against HCV nonstructural protein NS5A. The numbers of HCV foci were counted under fluorescent microscopy and the result is expressed as percentage (%) of mock with no peptide treatment but containing solvent 0.5% DMSO.
To determine whether the antiviral activity of peptide 1 is dependent on its primary amino acid sequence, four derivative peptides from peptide 1 were synthesized to a purity >95%. The four derivatives having the same composition of amino acids included (1) the reversed the sequence of peptide 1 (also called retro-peptide); (2) scrambled hydrophobic amino acids; (3) scrambled hydrophilic amino acids; and (4) a derivative in which the aspartic acid residues (D) were replaced with proline residues (P). The antiviral activity of the peptides was examined by HCV focus reduction assay at three peptide concentrations: 18 μM, 6 μM and 2 μM, as described above.

| Sequence | Fold Inhibition [fold] | % of Mock [%] | further results |
| --- | --- | --- | --- |
| DAILHTPGCVPCVREGNA [Peptide 6957] | 4.7 | 21.4 |  |
| MWNFISGIQYLAGLSTLP [Peptide 7178] | 2.3 | 42.9 |  |
| GWFTAGYSGGDIYHSVSH [Peptide 7350] | 2.3 | 42.9 |  |
| WRHRARSVRARLLSRGGR [Peptide 7343] | 2.1 | 47.6 |  |
| PAILSPGALVVGVVCAAI [Peptide 7195] | 2.3 | 42.9 |  |
| HTPVNSWLGNIIMFAPTL [Peptide 7329] | 2.1 | 47.6 |  |
| GNTLTCYIKARAACRAAG [Peptide 7313] | 2.2 | 45.2 |  |
| LEFWEGVFTGLTHIDAHF [Peptide 7148] | 3.0 | 33.3 |  |
| HINSTALNCNESLNTGWL [Peptide 6986] | 2.5 | 40.5 |  |
| SIWRDWVDLICEFLSDWK (OTHER INFORMATION: A synthetic peptide) |  |  | 1/3 diluted: 31 ± 2; 1/9 diluted: 16 ± 4; No dilution: 0 ± 0 |
| KFDSLVECIWDWIDRLWS (OTHER INFORMATION: A synthetic peptide) |  |  | 1/3 diluted: 50 ± 7; 1/9 diluted: 31 ± 3; No dilution: 1 ± 1 |
| QPGYPWPLYGNEGCGWAG [Peptide 6937] | 2.0 | 50.0 |  |
| DSSVLCECYDAGCAWYEL [Peptide 7142] | 2.5 | 40.5 |  |
| GWAGWLLSPRGSRPSWGP [Peptide 6939] | 2.2 | 45.2 |  |
| TSTWVLVGGVLAAL (VTSTWVLVGGVLAAL) [Peptide 7729] | 8.4 | 11.9 | Fold inhibition of HCV infection: five-fold to ten-fold |
| LAALAAYCLSTGCVV [Peptide 7730] | 4.7 | 21.4 |  |
| TDFAQGWGPISYANGSGL [Peptide 6992] | 3.2 | 31.0 |  |
| SSGADTEDVVCCSMS [Peptide 7740] | 2.3 | 42.9 |  |
| SIASWAIKWEYVVLLFLL [Peptide 7027] | 2.5 | 40.5 |  |
| EVFWAKHMWNFISGIQYL [Peptide 7177] | 4.2 | 23.8 |  |
| GPISYANGSGLDERPYCW [Peptide 6993] | 4.2 | 23.8 |  |
| KWLCRIWSWISDVLDDFE (OTHER INFORMATION: A synthetic peptide) |  |  | 1/3 diluted: 8 ± 6; 1/9 diluted: 15 ± 6; No dilution: 0 ± 0 |
| SWLRPIWPWICEVLSDFK (OTHER INFORMATION: A synthetic peptide) |  |  | 1/3 diluted: 21 ± 8; 1/9 diluted: 41 ± 2; No dilution: 9 ± 3 |
| KWEYVVLLFLLLADARVC [Peptide 7028] | 2.1 | 47.6 |  |
| DQLEQALNCEIYGACYSI [Peptide 7334] | 3.5 | 28.6 |  |

| Sequence | Fold Inhibition [fold] | % of Mock [%] | further results |
| --- | --- | --- | --- |
| APTLWARMILMTHFFSVL [Peptide 7331] | 2.2 | 45.2 |  |
| MYVGGVEHRLEAACNWTR [Peptide 7016] | 6.0 | 16.7 | Fold inhibition of HCV infection: five-fold to ten-fold |
| LELITSCSSNVSVAHDGA [Peptide 7323] | 2.3 | 42.9 |  |
| RAAGLQDCTMLVCGDDLV [Peptide 7315] | 2.0 | 50.0 |  |
| WVLVGGVLAALAAYCLST [Peptide 7163] | 3.8 | 26.2 |  |
| NCNESLNTGWLAGLFYQH [Peptide 6987] | 2.8 | 35.7 |  |
| WMNSTGFTKVCGAPPCVI [Peptide 7005] | 6.0 | 16.7 | Fold inhibition of HCV infection: five-fold to ten-fold |
| RHIDLLVGSATLCSALYV [Peptide 6963] | 3.2 | 31.0 |  |
| QIVGGVYLLPRRGPRLGV [Peptide 6930] | 2.2 | 45.2 |  |
| PCVIGGVGNNTLLCPTDC [Peptide 7007] | 3.0 | 33.3 |  |
| GAVYAFYGMWPLLLLLLA [Peptide 7038] | 5.3 | 19.0 | Fold inhibition of HCV infection: five-fold to ten-fold |
| DVVCCSMSYSWTGAL [Peptide 7742] | 4.2 | 23.8 |  |
| LASCRRLTDFAQGWGPIS [Peptide 6991] | 2.8 | 35.7 |  |
| AYMNTPGLPVCQDHLEFW [Peptide 7146] | 2.5 | 40.5 |  |
| VSTATQTFLATCIN [Peptide 7725] | 2.5 | 40.5 |  |
| LPTTQLRRHIDLLVGSAT [Peptide 6962] | 2.6 | 38.1 |  |
| HPITKYIMTCMSADLEVV [Peptide 7160] | 2.6 | 38.1 |  |
| YVSGMTTDNLKCPCQIPS [Peptide 7226] | 2.6 | 38.1 |  |
| DDLVVICESAGVQEDAAS [Peptide 7317] | 3.8 | 26.2 |  |
| TVTESDIRTEEAIYQCCD [Peptide 7304] | 2.8 | 35.7 |  |
| GVPPLRAWRHRARSVRAR [Peptide 7342] | 2.0 | 50.0 |  |
| DTEDVVCCSMSYSW [Peptide 7741] | 42.0 | 2.4 | Inhibition of HCV infection (cell culture model of HCV infection): strongly inhibit HCV infection; Fold inhibition of HCV infection: more than ten-fold |
| GSGLDERPYCWHYPPRPC [Peptide 6994] | 3.0 | 33.3 |  |
| GMWPLLLLLLALPQRAYA [Peptide 7039] | 3.2 | 31.0 |  |
